Usually IC50 stands for the concentration needed to halve the response being measured. A higher IC50 goes with a need for much substance.

The target of one assay is T1, human TLR9 (Homo sapiens, UniProt Q9NR96).
T1 construct: host or cells: HEK-Blue cells
T1 sequence (Q9NR96 26-1032): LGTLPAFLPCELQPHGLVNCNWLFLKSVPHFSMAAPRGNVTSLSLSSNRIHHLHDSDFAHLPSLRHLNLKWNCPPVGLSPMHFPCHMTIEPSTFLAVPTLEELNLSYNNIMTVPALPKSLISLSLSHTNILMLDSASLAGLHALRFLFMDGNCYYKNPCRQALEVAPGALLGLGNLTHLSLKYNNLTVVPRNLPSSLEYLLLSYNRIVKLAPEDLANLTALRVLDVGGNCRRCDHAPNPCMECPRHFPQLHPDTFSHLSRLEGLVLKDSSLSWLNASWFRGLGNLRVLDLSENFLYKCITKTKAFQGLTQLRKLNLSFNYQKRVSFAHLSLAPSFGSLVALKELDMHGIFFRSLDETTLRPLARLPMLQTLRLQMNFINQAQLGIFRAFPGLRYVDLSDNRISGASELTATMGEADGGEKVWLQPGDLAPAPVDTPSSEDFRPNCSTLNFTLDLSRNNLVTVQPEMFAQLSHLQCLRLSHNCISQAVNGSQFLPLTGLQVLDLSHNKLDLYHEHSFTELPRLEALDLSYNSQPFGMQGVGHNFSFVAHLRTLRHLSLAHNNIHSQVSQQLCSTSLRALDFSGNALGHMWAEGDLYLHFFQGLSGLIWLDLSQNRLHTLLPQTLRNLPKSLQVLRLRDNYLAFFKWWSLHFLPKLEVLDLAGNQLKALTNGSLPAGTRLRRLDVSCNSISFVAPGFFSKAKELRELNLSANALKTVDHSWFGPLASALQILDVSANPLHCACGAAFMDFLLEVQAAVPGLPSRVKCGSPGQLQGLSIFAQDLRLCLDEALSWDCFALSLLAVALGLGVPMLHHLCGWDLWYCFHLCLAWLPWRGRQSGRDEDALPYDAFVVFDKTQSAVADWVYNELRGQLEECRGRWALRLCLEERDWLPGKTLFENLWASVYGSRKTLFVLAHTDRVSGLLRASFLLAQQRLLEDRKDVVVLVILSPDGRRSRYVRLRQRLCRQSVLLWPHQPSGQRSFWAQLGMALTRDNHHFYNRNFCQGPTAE
Kind of assay: TLR9 inhibition reporter assay (HEK-Blue cells, SEAP reporter). The assay is classed as cell-based. Conditions: HEK-Blue cells overexpressing human TLR9, stimulated with ODN2006 5 nM, 22 hour incubation. Here is the method: (§1) TLR7/8/9 Inhibition Reporter Assays
HEK-Blue™-cells (Invivogen) overexpressing human TLR7, TLR8 or TLR9 receptors were used for screening inhibitors of these receptors using an inducible SEAP (secreted embryonic alkaline phosphatase) reporter gene under the control of the IFN-β minimal promoter fused to five NF-κB and AP-1-binding sites. Briefly, cells are seeded into Greiner 384 well plates (15000 cells per well for TLR7, 20,000 for TLR8 and 25,000 for TLR9) and then treated with test compounds in DMSO to yield a final dose response concentration range of 0.05 nM-50 μM. […] After a 22 hour incubation at 37° C., 5% CO2, SEAP levels are determined with the addition of HEK-Blue™ Detection reagent (Invivogen), a cell culture medium that allows for detection of SEAP, according to manufacturer's specifications. The percent inhibition is determined as the % reduction in the HEK-Blue signal present in wells treated with agonist plus DMSO alone compared to wells treated with a known inhibitor.

The target of a further assay is T2, human TLR8 (Homo sapiens, UniProt Q9NR97).
T2 construct: host or cells: HEK-Blue cells
T2 sequence (Q9NR97 27-1041): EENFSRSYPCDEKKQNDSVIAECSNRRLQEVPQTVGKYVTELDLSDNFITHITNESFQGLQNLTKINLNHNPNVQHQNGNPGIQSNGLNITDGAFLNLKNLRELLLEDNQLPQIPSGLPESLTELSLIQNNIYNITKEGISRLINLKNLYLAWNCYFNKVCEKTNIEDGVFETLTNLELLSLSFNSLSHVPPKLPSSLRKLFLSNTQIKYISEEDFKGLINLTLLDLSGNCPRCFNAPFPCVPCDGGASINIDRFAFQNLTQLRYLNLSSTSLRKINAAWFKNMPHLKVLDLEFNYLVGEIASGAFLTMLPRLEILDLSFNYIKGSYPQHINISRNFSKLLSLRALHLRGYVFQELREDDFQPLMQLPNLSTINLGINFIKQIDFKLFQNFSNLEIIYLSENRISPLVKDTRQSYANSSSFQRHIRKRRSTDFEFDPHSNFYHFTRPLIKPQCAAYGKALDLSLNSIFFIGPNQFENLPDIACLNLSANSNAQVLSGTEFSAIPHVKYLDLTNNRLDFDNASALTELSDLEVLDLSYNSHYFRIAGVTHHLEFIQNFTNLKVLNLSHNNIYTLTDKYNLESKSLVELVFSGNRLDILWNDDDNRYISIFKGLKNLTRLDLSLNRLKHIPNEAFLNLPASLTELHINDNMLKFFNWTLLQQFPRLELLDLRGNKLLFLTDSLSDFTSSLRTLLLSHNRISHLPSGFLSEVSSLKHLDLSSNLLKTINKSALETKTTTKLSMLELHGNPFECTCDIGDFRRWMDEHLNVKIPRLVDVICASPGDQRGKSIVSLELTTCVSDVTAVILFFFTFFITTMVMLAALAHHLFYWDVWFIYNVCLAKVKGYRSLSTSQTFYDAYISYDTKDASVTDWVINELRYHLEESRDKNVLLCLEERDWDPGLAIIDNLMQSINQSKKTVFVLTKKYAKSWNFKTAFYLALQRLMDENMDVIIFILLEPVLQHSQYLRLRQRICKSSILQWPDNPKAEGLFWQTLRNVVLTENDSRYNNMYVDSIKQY
Kind of assay: TLR8 inhibition reporter assay (HEK-Blue cells, SEAP reporter). The assay is classed as cell-based. Conditions: HEK-Blue cells overexpressing human TLR8, stimulated with R848 15.9 μM, 22 hour incubation. The protocol: as §1
HEK-Blue™-cells (Invivogen) overexpressing human TLR7, TLR8 or TLR9 receptors were used for screening inhibitors of these receptors using an inducible SEAP (secreted embryonic alkaline phosphatase) reporter gene under the control of the IFN-β minimal promoter fused to five NF-κB and AP-1-binding sites. Briefly, cells are seeded into Greiner 384 well plates (15000 cells per well for TLR7, 20,000 for TLR8 and 25,000 for TLR9) and then treated with test compounds in DMSO to yield a final dose response concentration range of 0.05 nM-50 μM. After a 30 minute compound pre-treatment at room temperature, the cells are then stimulated with a TLR7 ligand (gardiquimod at a final concentration of 7.5 μM), TLR8 ligand (R848 at a final concentration of 15.9 μM) or TLR9 ligand (ODN2006 at a final concentration of 5 nM) to activate NF-κB and AP-1 which induce the production of SEAP. After a 22 hour incubation at 37° C., 5% CO2, SEAP levels are determined with the addition of HEK-Blue™ Detection reagent (Invivogen), a cell culture medium that allows for detection of SEAP, according to manufacturer's specifications. The percent inhibition is determined as the % reduction in the HEK-Blue signal present in wells treated with agonist plus DMSO alone compared to wells treated with a known inhibitor.
Background: A reporter such as luciferase makes a cellular process visible.

Where only a bound is given, the exact number is not on record here.

For the compound `COc1ccc(-c2[nH]c3cnc(-c4ccc(N5CCN(C(C)C)CC5)cc4)cc3c2C)cc1OC` [Example 1, 2-(3,4-Dimethoxyphenyl)-5-(4-(4-isopropylpiperazin-1-yl)phenyl)-3-methyl-1H-pyrrolo[2,3-c]pyridine], the IC50 at human TLR9 amounted to 161 nM; at human TLR8, 21000 nM.
Take `COc1ccc(-c2c(C)[nH]c3cnc(-c4ccc(N5CCN(C(C)C)CC5)cc4)cc23)cc1OC` [Example 2, 3-(3,4-dimethoxyphenyl)-5-(4-(4-isopropylpiperazin-1-yl)phenyl)-2-methyl-1H-pyrrolo[2,3-c]pyridine]: the IC50 worked out at 157 nM against human TLR9 and 29000 nM on human TLR8.
`COc1ccc(-c2c(C)n(C)c3cnc(-c4ccc(N5CCN(CC(C)(C)O)CC5)cc4)cc23)cc1OC` [Example 3, 1-(4-(4-(3-(3,4-Dimethoxyphenyl)-1,2-dimethyl-1H-pyrrolo[2,3-c]pyridin-5-yl)phenyl)piperazin-1-yl)-2-methylpropan-2-ol]: the IC50 is 82 nM against human TLR9 and 37700 nM against human TLR8.
On the same counts, the results for `COc1ccc(-c2c(C)[nH]c3cnc(C4CCN(C5CCN(C(=O)OCc6ccccc6)CC5)CC4)cc23)cc1OC` [Example 4, Benzyl 4-(3-(3,4-dimethoxyphenyl)-2-methyl-1H-pyrrolo[2,3-c]pyridin-5-yl)-[1,4′-bipiperidine]-1′-carboxylate] are 243 nM and 23500 nM.
Take `COc1ccc(-c2c(C)[nH]c3cnc(C4CCN(C(=O)C5CCN(C6CC6)CC5)CC4)cc23)cc1OC` [Example 5, (1-Cyclopropylpiperidin-4-yl)(4-(3-(3,4-dimethoxyphenyl)-2-methyl-1H-pyrrolo[2,3-c]pyridin-5-yl)piperidin-1-yl)methanone]: the results for the IC50 at human TLR9 and at human TLR8 were 133 nM and greater than 50000 nM, respectively.
As to `COc1ccc(-c2c(C)[nH]c3cnc(C4CCN(c5cc(C)nc(C)c5)CC4)cc23)cc1OC` [Example 6, 3-(3,4-Dimethoxyphenyl)-5-(1-(2,6-dimethylpyridin-4-yl)piperidin-4-yl)-2-methyl-1H-pyrrolo[2,3-c]pyridine], the half-inhibitory concentration (IC50) was determined as 296 nM at human TLR9 and 23300 nM at human TLR8.
`COc1ccc(-c2cc3cnc(-c4ccc(N5CCN(CC6CC6)CC5)cc4)cc3n2C)cc1OC` [Example 9, 6-(4-(4-(Cyclopropylmethyl)piperazin-1-yl)phenyl)-2-(3,4-dimethoxyphenyl)-1-methyl-1H-pyrrolo[3,2-c]pyridine]: the IC50 against human TLR9 amounted to 21 nM; at human TLR8, 1500 nM.
`COc1ccc(-c2cc3cnc(-c4ccc(N5CCN(C6CCC6)CC5)cc4)cc3n2C)cc1OC` [Example 10, 6-(4-(4-Cyclobutylpiperazin-1-yl)phenyl)-2-(3,4-dimethoxyphenyl)-1-methyl-1H-pyrrolo[3,2-c]pyridine]: the 50% inhibitory concentration (IC50) against human TLR9 was found to be 66 nM; at human TLR8, 5200 nM.
The corresponding values for `COc1ccc(-c2c(C)c3cc(C4CCN(C5CCN(CC(C)C)CC5)CC4)ncc3n2C)cc1OC` [Example 13, 2-(3,4-dimethoxyphenyl)-5-(1′-isobutyl-[1,4′-bipiperidin]-4-yl)-1,3-dimethyl-1H-pyrrolo[2,3-c]pyridine] are 191 nM and greater than 50000 nM.
As to `COc1ccc(-c2c(C)[nH]c3cnc(C4CCN(C5CCN(C(=O)c6ccccc6)CC5)CC4)cc23)cc1OC` [Example 14, (4-(3-(3,4-dimethoxyphenyl)-2-methyl-1H-pyrrolo[2,3-c]pyridin-5-yl)-[1,4′-bipiperidin]-1′-yl) (phenyl)methanone], the 50% inhibitory concentration (IC50) against human TLR9 is 313 nM; against human TLR8, greater than 50000 nM.
Consider `COc1ccc(-c2c(C)[nH]c3cnc(C4CCN(C5CCN(C(=O)C(C)C)CC5)CC4)cc23)cc1OC` [Example 15, 1-(4-(3-(3,4-dimethoxyphenyl)-2-methyl-1H-pyrrolo[2,3-c]pyridin-5-yl)-[1,4′-bipiperidin]-1′-yl)-2-methylpropan-1-one], for which the values for the IC50 against human TLR9 and at human TLR8 were 39 nM and greater than 50000 nM, respectively.
For the compound `COc1ccc(-c2c(C)[nH]c3cnc(C4CCN(C(=O)CN5CCCCC5)CC4)cc23)cc1OC` [Example 16, 1-(4-(3-(3,4-dimethoxyphenyl)-2-methyl-1H-pyrrolo[2,3-c]pyridin-5-yl)piperidin-1-yl)-2-(piperidin-1-yl)ethan-1-one], the IC50 stood at 84 nM on human TLR9 and 47900 nM against human TLR8.
The corresponding values for `COc1ccc(-c2c(C)n(C)c3cnc(C4CCN(C5CCN(CC(C)C)CC5)CC4)cc23)cc1OC` [Example 17, 3-(3,4-dimethoxyphenyl)-5-(1′-isobutyl-[1,4′-bipiperidin]-4-yl)-1,2-dimethyl-1H-pyrrolo[2,3-c]pyridine] are 19 nM and greater than 50000 nM.
Consider `COc1ccc(-c2c(C)n(C)c3cnc(C4CCN(C5CCN(C(=O)C(C)C)CC5)CC4)cc23)cc1OC` [Example 18, 1-(4-(3-(3,4-dimethoxyphenyl)-1,2-dimethyl-1H-pyrrolo[2,3-c]pyridin-5-yl)-[1,4′-bipiperidin]-1′-yl)-2-methylpropan-1-one], for which the half-inhibitory concentration (IC50) against human TLR9 is 194 nM; on human TLR8, greater than 50000 nM.
The corresponding values for `COc1ccc(-c2c(C)n(C)c3cnc(C4CCN(C5CCN(C(=O)c6ccccc6)CC5)CC4)cc23)cc1OC` [Example 19, (4-(3-(3,4-dimethoxyphenyl)-1,2-dimethyl-1H-pyrrolo[2,3-c]pyridin-5-yl)-[1,4′-bipiperidin]-1′-yl)(phenyl)methanone] are 130 nM and greater than 50000 nM.

For the origin of these results see patent US12590091B2, “1H-pyrrolo[3,2-C]pyridine and 1H-pyrrolo[2,3-C]pyridine derivatives as TLR9 inhibitors for the treatment of fibrosis” (BRISTOL-MYERS SQUIBB COMPANY, priority 2020, dated 2026).
